# Test results taken from ChEMBL document CHEMBL1152263, “Perylene-conjugated pyrrole polyamide as a sequence-specific fluorescent probe” (Bioorg Med Chem, 2008).
# Activity calls are given as the source filed them. The calls are words filed in the database; no cut-off is given here.
# Tests used:
# [1] = Binding affinity to AT-rich sequence of double strand DNA by fluorescence spectra
# [2] = Binding affinity to ODN1/2 double strand DNA by fluorescence spectra
compound,measurement,setting,value
CC(=O)Nc1cc(C(=O)Nc2cc(C(=O)NCCC(=O)Nc3cc(C(=O)Nc4cc(C(=O)NCCC(=O)NCCCN(C)C)n(C)c4)n(C)c3)n(CC#Cc3ccc4c5cccc6cccc(c7cccc3c74)c65)c2)n(C)c1,Activity,[1],Active
same,Activity,[2],Active
